Test results reported in PMC6337594 (2018).

What was measured:
[1] = test system: CMA (DNA, G4) TAGGGAGGGTAGGGAGGGT; assay: gel mobility shift; conditions: 100 mM K+; 40 µM CMA, 80 µM compound
[2] = test system: biotinylated Tel48 (DNA, G4) TTAGGGTTAGGGTTAGGGTTAGGGTTAGGGTTAGGGTTAGGGTTAGGG; assay: bio-layer interferometry, kinetic; conditions: 100 mM K+; 10 mM Tris, 25 °C; two-site model, Kb = ka/kd; immobilised Tel48
[3] = test system: Tel48 (DNA, G4) TTAGGGTTAGGGTTAGGGTTAGGGTTAGGGTTAGGGTTAGGGTTAGGG; assay: CD, ligand-induced G4 formation; conditions: no K+; Tris buffer, 25 °C; 4 µM Tel48, 8 µM compound
[4] = test system: Tel48 (DNA, G4) TTAGGGTTAGGGTTAGGGTTAGGGTTAGGGTTAGGGTTAGGGTTAGGG; assay: CD melting; conditions: 100 mM K+; 10 mM Tris-HCl pH 7.5; compound concentration not stated
[5] = test system: LD12 (DNA, duplex) GCGCAATTGCGC; assay: fluorescence enhancement; pre-stained gel; conditions: 100 mM K+; 15 µM H33258, 15 µM LD12

Compound	binding [1]	Kb [2] [M⁻¹]	binding [3]	dTm [4]	binding [5]
C[n+]1ccc(-c2c3nc(c(-c4cc[n+](C)cc4)c4ccc([nH]4)c(-c4cc[n+](C)cc4)c4nc(c(-c5cc[n+](C)cc5)c5ccc2[nH]5)C=C4)C=C3)cc1	yes	1.55e+07	yes	~ 10 °C	–
C[n+]1ccccc1/C=C/c1ccc2[nH]c3ccc(/C=C/c4cccc[n+]4C)cc3c2c1	yes	2.38e+06	yes	–	–
C[n+]1ccnc(/C=C/c2ccc3[nH]c4ccc(/C=C/c5c[n+](C)ccn5)cc4c3c2)c1	yes	529000	–	–	–

Now from value to molecule, other results behind:

binding [1]	Kb [2] [M⁻¹]	binding [3]	dTm [4]	Compound	binding [5]
yes	9.84e+06	yes	–	CN(C)c1ccc(Nc2c3ccc(NC(=O)CCN4CCCC4)cc3nc3cc(NC(=O)CCN4CCCC4)ccc23)cc1	–
–	–	–	~ 4 °C	CN1CCN(c2ccc3nc(-c4ccc5nc(-c6ccc(O)cc6)[nH]c5c4)[nH]c3c2)CC1	yes
–	–	yes	~ 2 °C	NCCOc1cc(C(=O)Nc2cc(OCCN)c3ccccc3n2)nc(C(=O)Nc2cc(OCCN)c3ccccc3n2)c1	–
